From publication PMC9414972, “α-Glucosidase and α-Amylase Inhibitory Potentials of Quinoline–1,3,4-oxadiazole Conjugates Bearing 1,2,3-Triazole with Antioxidant Activity, Kinetic Studies, and Computational Validation” (Pharmaceuticals, 2022)
pIC50: −log10 of the molar value.

Experiments:
[1] = target: T1, porcine pancreatic amylase (Sus scrofa, UniProt P00690); assay: α-Amylase inhibitory activity (starch/DNS); assay type: biochemical; conditions: porcine pancreatic amylase, starch, pH 6.9, 25 °C; read-out: IC50 α-Amylase
T1 construct: purchased Merck
T1 sequence (P00690 16-511): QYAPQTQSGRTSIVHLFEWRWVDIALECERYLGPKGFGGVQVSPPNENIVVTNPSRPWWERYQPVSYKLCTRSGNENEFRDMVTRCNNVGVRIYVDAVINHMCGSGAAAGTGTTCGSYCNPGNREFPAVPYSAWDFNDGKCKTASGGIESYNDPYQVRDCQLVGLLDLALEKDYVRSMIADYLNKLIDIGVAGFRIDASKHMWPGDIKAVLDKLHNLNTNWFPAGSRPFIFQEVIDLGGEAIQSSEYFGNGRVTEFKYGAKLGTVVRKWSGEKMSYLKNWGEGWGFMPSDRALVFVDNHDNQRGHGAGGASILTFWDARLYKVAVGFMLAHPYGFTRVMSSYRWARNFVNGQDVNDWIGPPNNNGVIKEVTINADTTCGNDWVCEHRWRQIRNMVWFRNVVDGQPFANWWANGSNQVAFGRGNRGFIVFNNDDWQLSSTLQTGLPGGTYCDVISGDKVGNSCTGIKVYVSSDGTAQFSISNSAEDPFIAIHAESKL
Procedure: α-Amylase inhibitory activity was determined according to Ibitoye et al. with slight modifications. […] The reaction in the mixture was terminated with a 1 mL dinitrosalicylate reagent before boiling for 10 min. The cooled mixture was diluted with 5 mL distilled water, and the absorbance was read at 540 nm. The inhibitory activity was calculated using the formula below: % Inhibition=1−Absorbance of compound/Absorbance of control×100

[2] = Ferric reducing antioxidant power (FRAP); conditions: ferric reducing antioxidant power
Procedure: FRAP is a ferric (Fe^3+) to ferrous (Fe^2+) ions reduction assay that measures a compound’s electron-donating capacity, i.e., the antioxidant’s reducing power.
The mixture was incubated at 50 °C for 20 min, followed by acidification with 100 μL trichloroacetic acid (10%). After centrifugation at 3500 rpm for 10 min, 200 μL of the supernatant was transferred into another test tube containing 200 μL of distilled water and 0.8 mL of FeCl3 (0.1%). Finally, the absorbance was read at 700 nm, and the total reductive antioxidant power was calculated thus: Ferric reducing antioxidant power (%)=Absorbance of compound/Absorbance of 500µM gallic acid×100

[3] = DPPH radical scavenging activity; conditions: DPPH radical scavenging, 30 min, 25 °C
Procedure: The DPPH assay is used conventionally to quantify a compound’s ability to trap free radicals.
The compounds were evaluated for their ability to scavenge stable DPPH radicals, using a modification of the method by Turkoglu et al..

α-glucosidase [4] = target: T2, α-glucosidase (Saccharomyces cerevisiae, UniProt P38158); assay: biochemical; conditions: pNPG substrate, pH 6.8, 37 °C; read-out: IC50 α-Glucosidase
T2 construct: purchased Merck
T2 sequence (P38158 whole entry): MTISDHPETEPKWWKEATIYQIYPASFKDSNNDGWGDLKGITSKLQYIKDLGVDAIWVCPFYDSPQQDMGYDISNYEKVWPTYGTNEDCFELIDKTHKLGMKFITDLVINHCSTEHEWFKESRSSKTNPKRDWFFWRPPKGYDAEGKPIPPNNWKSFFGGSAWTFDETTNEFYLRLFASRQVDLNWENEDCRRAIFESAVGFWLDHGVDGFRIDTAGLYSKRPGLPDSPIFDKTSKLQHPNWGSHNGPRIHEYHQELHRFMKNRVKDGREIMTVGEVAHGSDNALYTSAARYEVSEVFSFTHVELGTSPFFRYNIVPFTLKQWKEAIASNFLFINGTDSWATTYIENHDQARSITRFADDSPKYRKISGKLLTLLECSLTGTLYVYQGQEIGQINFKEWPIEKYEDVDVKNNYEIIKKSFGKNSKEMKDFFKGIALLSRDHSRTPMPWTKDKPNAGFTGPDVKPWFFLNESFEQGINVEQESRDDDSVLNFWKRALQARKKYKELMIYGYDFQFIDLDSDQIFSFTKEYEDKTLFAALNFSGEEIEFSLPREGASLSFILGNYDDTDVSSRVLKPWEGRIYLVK
Procedure: The α-glucosidase inhibitory activity was evaluated using a previous method with slight modifications.

[5] = Nitric oxide (NO) scavenging activity; conditions: nitric oxide radical scavenging, 37 °C, 2 h
Procedure: The screening of the present compound series for NO radical scavenging activity (Table 2) identified excellent NO scavengers.
The antioxidant capacity of the compounds to scavenge nitric oxide radicals was determined using a modified version of the protocol by Kurian et al.. Briefly, 250 μL of sodium nitroprusside (10 mM) prepared in sodium phosphate buffer (pH 7.4) was added to 500 μL of the compound solution (62.5–500 μM) or distilled water (control). The resulting solution was incubated at 37 °C for 2 h. Then, 250 μL of Griess reagent was added to the reaction mixture before the absorbance was measured at 546 nm. The nitric oxide scavenging activity of the compounds was calculated with the formula: Nitric oxide scavenging (%)=1−Absorbance of compound/Absorbance of control×100

α-glucosidase [6] = target: T2, α-glucosidase; assay: Mode of α-glucosidase inhibition (enzyme kinetics, Lineweaver–Burk); assay type: biochemical; conditions: Lineweaver–Burk plots; inhibitor 0, 75, 150, 300 µM; pNPG
From the text: Understanding a drug’s mode of inhibiting its target is crucial to improve the drug’s activity profile and target specificity. Although orthosteric inhibition, in which the ligand binds at the target’s active site, dominates among currently available drugs, allosteric inhibitors (i.e., drugs binding at regions […] the active site) are desirable due to their reduced vulnerability to active site mutation or to displacement through native substrate overload at the active site. Accordingly, the mode of α-glucosidase inhibition was investigated for promising compounds 4b, 4i, 4j, 4k, 4l, 12k, and 12m, using a time-dependent para-nitrophenyl-[…] (pNPG) assay; the results are presented as Lineweaver–Burk plots (Figure 4). […] Conceivably, this can result in decreased systemic glucose concentration thus alleviating postprandial hyperglycemia and its associated complications.
The mode of inhibition of α-glucosidase of the 4b, 4i, 4j, 4k, 4l, 12k, and 12m compounds was determined using the method described by Kazeem et al. 2013, with modifications. Briefly, 50 µL of the 4b, 4i, 4j, 4k, 4l, 12k, and 12m compounds at (0 µM, 75 µM, 150 µM and 300 µM) concentrations were preincubated with 100 µL of α-glucosidase solution for 10 min at 25 °C in one set of tubes. In another set of tubes, α-glucosidase was preincubated with 50 µL of phosphate buffer (pH 6.9). 25 µL of pNPG at increasing concentrations (0.125–4.0 mg/mL) was added to both sets of solution to start the reaction. Immediately, the absorbance of the resulting solution was monitored for 2 min in a spectrophotometer at 405 nm. The amount of 4-nitrophenol released was determined from a 4-nitrophenol standard curve and then converted to reaction velocities.

CCCSc1nnc(COc2cccc3cccnc23)o1 [4b, 2-(Propylthio)-5-[(quinolin-8-yloxy)methyl]-1,3,4-oxadiazole]
pIC50 [1]: < 3.30
pIC50 [2]: < 3.30
pIC50 [3]: 4.11
pIC50 (α-glucosidase [4]): 4.60
pIC50 [5]: < 3.30
mode of α-glucosidase inhibition (α-glucosidase [6]): non-competitive

BrCCCCCSc1nnc(COc2cccc3cccnc23)o1 [4i, 2-[(5-Bromopentyl)thio]-5-[(quinolin-8-yloxy)methyl]-1,3,4-oxadiazole]
pIC50 [1]: < 3.30
pIC50 [2]: 4.64
pIC50 [3]: 4.26
pIC50 (α-glucosidase [4]): 4.80
pIC50 [5]: 3.70
mode of α-glucosidase inhibition (α-glucosidase [6]): non-competitive

c1ccc(CSc2nnc(COc3cccc4cccnc34)o2)cc1 [4j, 2-(Benzylthio)-5-[(quinolin-8-yloxy)methyl]-1,3,4-oxadiazole]
pIC50 [1]: < 3.30
pIC50 [2]: < 3.30
pIC50 [3]: 4.26
pIC50 (α-glucosidase [4]): 4.57
melting point: 75.3 to 79.8 °C
pIC50 [5]: 3.40
mode of α-glucosidase inhibition (α-glucosidase [6]): non-competitive

Fc1ccc(CSc2nnc(COc3cccc4cccnc34)o2)cc1 [4k, 2-[(4-Fluorobenzyl)thio]-5-[(quinolin-8-yloxy)methyl]-1,3,4-oxadiazole]
pIC50 [1]: < 3.30
pIC50 [2]: < 3.30
pIC50 [3]: 4.09
pIC50 (α-glucosidase [4]): 4.63
melting point: 106.9 to 109.4 °C
pIC50 [5]: < 3.30
mode of α-glucosidase inhibition (α-glucosidase [6]): non-competitive

Brc1ccc(Cn2cc(CSc3nnc(COc4cccc5cccnc45)o3)nn2)cc1 [12f, 2-{[(1-(4-Bromobenzyl)-1H-1,2,3-triazol-4-yl)methyl]thio}-5-[(quinolin-8-yloxy)methyl]-1,3,4-oxadiazole]
pIC50 [1]: < 3.30
pIC50 [2]: < 3.30
pIC50 [3]: 4.04
pIC50 (α-glucosidase [4]): 4.25
melting point: 78 to 82 °C
pIC50 [5]: 3.32

O=[N+]([O-])c1ccc(Cn2cc(CSc3nnc(COc4cccc5cccnc45)o3)nn2)cc1 [12g, 2-{[(1-(4-Nitrobenzyl)-1H-1,2,3-triazol-4-yl)methyl]thio}-5-[(quinolin-8-yloxy)methyl]-1,3,4-oxadiazole]
pIC50 [1]: < 3.30
pIC50 [2]: < 3.30
pIC50 [3]: 4.09
pIC50 (α-glucosidase [4]): 4.33
melting point: 100 to 106 °C
pIC50 [5]: 5.52

Clc1cccc(Cn2cc(CSc3nnc(COc4cccc5cccnc45)o3)nn2)c1 [12h, 2-{[(1-(3-Chlorobenzyl)-1H-1,2,3-triazol-4-yl)methyl]thio}-5-[(quinolin-8-yloxy)methyl]-1,3,4-oxadiazole]
pIC50 [1]: < 3.30
pIC50 [2]: < 3.30
pIC50 [3]: 4.04
pIC50 (α-glucosidase [4]): 4.20
melting point: 78 to 84 °C
pIC50 [5]: < 3.30

Clc1ccc(Cn2cc(CSc3nnc(COc4cccc5cccnc45)o3)nn2)c(Cl)c1 [12i, 2-{[(1-(2,4-Dichlorobenzyl)-1H-1,2,3-triazol-4-yl)methyl]thio}-5-[(quinolin-8-yloxy)methyl]-1,3,4-oxadiazole]
pIC50 [1]: < 3.30
pIC50 [2]: < 3.30
pIC50 [3]: 4.02
pIC50 (α-glucosidase [4]): 4.37
melting point: 124 to 130 °C
pIC50 [5]: < 3.30

Clc1ccc(-n2cc(CSc3nnc(COc4cccc5cccnc45)o3)nn2)cc1 [12l, 2-{[(1-(4-Chlorophenyl)-1H-1,2,3-triazol-4-yl)methyl]thio}-5-[(quinolin-8-yloxy)methyl]-1,3,4-oxadiazole]
pIC50 [1]: < 3.30
pIC50 [2]: < 3.30
pIC50 [3]: 4.09
pIC50 (α-glucosidase [4]): 4.42
melting point: 132 to 136 °C
pIC50 [5]: < 3.30

Brc1ccc(-n2cc(CSc3nnc(COc4cccc5cccnc45)o3)nn2)cc1 [12n, 2-{[(1-(4-Bromophenyl)-1H-1,2,3-triazol-4-yl)methyl]thio}-5-[(quinolin-8-yloxy)methyl]-1,3,4-oxadiazole]
pIC50 [1]: < 3.30
pIC50 [2]: < 3.30
pIC50 [3]: 4.04
pIC50 (α-glucosidase [4]): 4.45
melting point: 126 to 132 °C
pIC50 [5]: < 3.30

O=[N+]([O-])c1ccc(-n2cc(CSc3nnc(COc4cccc5cccnc45)o3)nn2)cc1 [12o, 2-{[(1-(4-Nitrophenyl)-1H-1,2,3-triazol-4-yl)methyl]thio}-5-[(quinolin-8-yloxy)methyl]-1,3,4-oxadiazole]
pIC50 [1]: < 3.30
pIC50 [2]: < 3.30
pIC50 [3]: 4.05
pIC50 (α-glucosidase [4]): 4.42
melting point: 150 to 156 °C
pIC50 [5]: < 3.30

Cc1ccc(-n2cc(CSc3nnc(COc4cccc5cccnc45)o3)nn2)cc1 [12p, 2-[(Quinolin-8-yloxy)methyl]-5-{[(1-(p-tolyl)-1h-1,2,3-triazol-4-yl)methyl]thio}-1,3,4-oxadiazole]
pIC50 [1]: 3.31
pIC50 [2]: < 3.30
pIC50 [3]: 4.02
pIC50 (α-glucosidase [4]): 4.36
melting point: 78 to 80 °C
pIC50 [5]: < 3.30

COc1ccc(-n2cc(CSc3nnc(COc4cccc5cccnc45)o3)nn2)cc1 [12q, 2-{[(1-(4-Methoxyphenyl)-1H-1,2,3-triazol-4-yl)methyl]thio}-5-[(quinolin-8-yloxy)methyl]-1,3,4-oxadiazole]
pIC50 [1]: < 3.30
pIC50 [2]: < 3.30
pIC50 [3]: 4.01
pIC50 (α-glucosidase [4]): 4.21
melting point: 122 to 128 °C
pIC50 [5]: < 3.30

Clc1ccc(-n2cc(CSc3nnc(COc4cccc5cccnc45)o3)nn2)c(Cl)c1 [12r, 2-{[(1-(2,4-Dichlorophenyl)-1H-1,2,3-triazol-4-yl)methyl]thio}-5-[(quinolin-8-yloxy)methyl]-1,3,4-oxadiazole]
pIC50 [1]: < 3.30
pIC50 [2]: < 3.30
pIC50 [3]: 4.00
pIC50 (α-glucosidase [4]): 4.31
melting point: 112 to 116 °C
pIC50 [5]: < 3.30

Clc1cccc(Cl)c1-n1cc(CSc2nnc(COc3cccc4cccnc34)o2)nn1 [12s, 2-{[(1-(2,6-Dichlorophenyl)-1H-1,2,3-triazol-4-yl)methyl]thio}-5-[(quinolin-8-yloxy)methyl]-1,3,4-oxadiazole]
pIC50 [1]: < 3.30
pIC50 [2]: < 3.30
pIC50 [3]: 4.07
pIC50 (α-glucosidase [4]): 4.41
melting point: 113 to 118 °C
pIC50 [5]: < 3.30

Cc1cccc(C)c1-n1cc(CSc2nnc(COc3cccc4cccnc34)o2)nn1 [12t, 2-{[(1-(2,6-Dimethylphenyl)-1H-1,2,3-triazol-4-yl)methyl]thio}-5-[(quinolin-8-yloxy)methyl]-1,3,4-oxadiazole]
pIC50 [1]: < 3.30
pIC50 [2]: < 3.30
pIC50 [3]: 4.05
pIC50 (α-glucosidase [4]): 4.36
melting point: 110 to 116 °C
pIC50 [5]: < 3.30
